For one test, the target named is Recombinant human TRKA (Homo sapiens (Human), UniProt P04629). As to the kind of experiment: In vitro activity test on TRKA kinase (HTRF kinEASE TK). Type of test: biochemical. Conditions: 14.68 μM ATP, 40 min, room temperature. The procedure:
(§1) Recombinant human TRKA, TRKB, TRKC proteins were purchased from Carna Biosciences. HTRF kinEASE TK kit was purchased from Cisbio Bioassays. Synergy Neo 2 of Biotek was used to read the plate.
(§2) The tested compounds were subjected to 3-fold serial dilution to reach a final concentration of 1 μM to 0.05 nM (10 concentrations), duplicates for each concentration; and the DMSO concentration in the detection reaction was 1%.
0.2 ng/μL TRKA protein kinase, 1 μM TK Substrate-biotin polypeptide substrate, 14.68 μM ATP, 1×enzymatic buffer, 5 mM MgCl2, and 1 mM DTT. The assay plate was White Proxiplate384-Plus plate (PerkinElmer), and the reaction was incubated at room temperature for 40 min, and the assay volume was 10 μL.
(§3) 10 μL of detection reagent (containing 0.125 μM SA-XL665 and 5 μL 1×TK-Antibody) was added to the plate and incubated overnight at room temperature. Synergy Neo 2 was used to read the plate.
(§4) The 665/620 Ratio was converted according to the following formula into inhibition rate (%)=(1−Ratiotest/Ratiomax)×100%. Ratiomax was the value of positive controls without tested compound, and Ratiotest was the value of each concentration of different compounds. IC50 (nM) data was obtained by 4 parameter curve fitting (see Table 1).
A general note: Time-resolved FRET reads energy transfer from a long-lived donor to a nearby acceptor.

The next test concerns the target Recombinant human TRKB (Homo sapiens (Human), UniProt Q16620). Kind of test: In vitro activity test on TRKB kinase (HTRF kinEASE TK). The test is classed as biochemical. The settings on record: 4.77 μM ATP, 50 min, room temperature. As to the method:
as §1, §2
0.037 ng/μL TRKB protein kinase, 1 μM TK Substrate-biotin polypeptide substrate, 4.77 μM ATP, 1× enzymatic buffer, 5 mM MgCl2, 1 mM MnCl2 and 1 mM DTT. The assay plate was White Proxiplate 384-Plus plate (PerkinElmer), the reaction was incubated at room temperature for 50 min, and the assay volume was 10 μL.
as §3, §4

Another test deals with KM12-LUC cells. As to the kind of experiment: KM12-LUC cell proliferation experiment (CellTiter-Glo). The test is classed as cell-based. Conditions: human colon cancer cell line with TPM3-NTRK1 fusion, 72 hours. As to the method: Human colon cancer cell line KM12-LUC (LUC, stably expressing Luciferase) expressing TPM3-NTRK1 fusion gene was used to evaluate cellular activity of the compounds. The TRK fusion gene in KM12-LUC cells makes the sustained activation of TRK and the downstream signaling pathways associated with cell proliferation such as MAPK-ERK, PI3K-AKT, etc independent of the stimulation of extracellular growth factor. […] The method was as follows: On the first day, the cells were seeded into 384-well plates at 2000 cells/well; on the second day, different concentrations of test compounds were added; and on the 5th day, CellTiter-Glo (Promega) was added to detect cell viability, and the cell proliferation inhibition rate at 72 hours was calculated. Statistical analysis was carried out by PRISM5 and the IC50 of the test compounds was calculated.
For orientation: Cellular ATP, detected with luciferase, serves as a proxy for viable cell number.

The next test concerns the target Recombinant human TRKC (Homo sapiens (Human), UniProt Q16288). Kind of test: In vitro activity test on TRKC kinase (HTRF kinEASE TK). The test is classed as biochemical. Conditions: 25.64 μM ATP, 40 min, room temperature. As to the method: as §1, §2
0.037 ng/μL TRKC protein kinase, 1 μM TK Substrate-biotin polypeptide substrate, 25.64 μM ATP, 1× enzymatic buffer, 5 mM MgCl2, and 1 mM DTT. The detection plate was White Proxiplate 384-Plus plate (PerkinElmer), the reaction was incubated at room temperature for 40 min, and the assay volume was 10 μL.
as §3, §4

Test [1] addresses recombinant human TRKA (G595R) (Homo sapiens (Human), UniProt P04629, G595R). Kind of test: In vitro activity test on mutant TRKA (G595R) (HTRF kinEASE TK). Type of test: biochemical. The settings on record: 4.5 μM ATP, 30 min, room temperature; read-out: TRKA (G595R) IC 50. The procedure:
The recombinant human TRKA (G595R), TRKA (G667C) and TRKC (G623R) proteins were purchased from SignalChem. HTRF kinEASE TK kit was purchased from Cisbio Bioassays. Synergy Neo 2 of Biotek was used to read the plate.
The tested compounds were subjected to 4-fold serial dilution to reach a final concentration of 1 μM to 0.004 nM (10 concentrates), duplicates for each concentration; and the final concentration of DMSO in the reaction was 1%.
0.12 ng/μL TRKA (G595R) kinase, 1 μM TK Substrate-biotin polypeptide substrate, 4.5 μM ATP, 1× enzymatic buffer, 5 mM MgCl2, and 1 mM DTT. The assay plate was White Proxiplate384-Plus plate (PerkinElmer), and the reaction was incubated at room temperature for 30 min, and the assay volume was 10 μL.
10 μL of detection reagent (containing 0.125 μM SA-XL665 and 5 μL 1×TK-Antibody) was added to the plate and incubated overnight at room temperature, and Synergy Neo 2 was used to read the plate.
The value of 665/620 Ratio minus the value of negative control wells without enzyme, then the obtained value was converted according to the following formula into inhibition rate (%)=(1−Ratiotest/Ratiomax)×100%. Ratiomax was the value of positive controls without tested compound, and Ratiotest was the value of each concentration of different compounds. IC50 (nM) data was obtained by 4 parameter curve fitting (see Table 3).

Sequence of recombinant human TRKA (G595R) (P04629 33-796 G595R): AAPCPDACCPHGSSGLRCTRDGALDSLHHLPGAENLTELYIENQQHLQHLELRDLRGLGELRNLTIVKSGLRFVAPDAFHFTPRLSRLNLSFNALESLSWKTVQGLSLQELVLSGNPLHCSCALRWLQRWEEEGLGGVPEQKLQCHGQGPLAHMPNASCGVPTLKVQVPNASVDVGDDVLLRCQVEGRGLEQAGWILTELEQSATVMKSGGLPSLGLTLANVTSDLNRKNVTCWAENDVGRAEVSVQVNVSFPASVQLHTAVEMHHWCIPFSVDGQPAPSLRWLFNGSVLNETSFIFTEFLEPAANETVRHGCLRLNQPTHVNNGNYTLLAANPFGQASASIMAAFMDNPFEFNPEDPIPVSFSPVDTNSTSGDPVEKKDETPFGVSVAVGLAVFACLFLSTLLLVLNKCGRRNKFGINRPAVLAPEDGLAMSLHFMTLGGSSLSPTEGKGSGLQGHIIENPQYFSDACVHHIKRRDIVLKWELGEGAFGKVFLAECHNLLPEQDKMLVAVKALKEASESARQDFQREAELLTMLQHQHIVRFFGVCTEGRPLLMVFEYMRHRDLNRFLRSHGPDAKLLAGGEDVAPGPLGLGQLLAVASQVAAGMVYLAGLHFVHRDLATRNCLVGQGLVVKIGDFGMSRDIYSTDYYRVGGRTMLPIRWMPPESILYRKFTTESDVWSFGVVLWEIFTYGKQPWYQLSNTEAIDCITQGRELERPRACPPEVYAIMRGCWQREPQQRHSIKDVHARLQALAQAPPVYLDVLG
Sequence of Recombinant human TRKB (Q16620 32-822): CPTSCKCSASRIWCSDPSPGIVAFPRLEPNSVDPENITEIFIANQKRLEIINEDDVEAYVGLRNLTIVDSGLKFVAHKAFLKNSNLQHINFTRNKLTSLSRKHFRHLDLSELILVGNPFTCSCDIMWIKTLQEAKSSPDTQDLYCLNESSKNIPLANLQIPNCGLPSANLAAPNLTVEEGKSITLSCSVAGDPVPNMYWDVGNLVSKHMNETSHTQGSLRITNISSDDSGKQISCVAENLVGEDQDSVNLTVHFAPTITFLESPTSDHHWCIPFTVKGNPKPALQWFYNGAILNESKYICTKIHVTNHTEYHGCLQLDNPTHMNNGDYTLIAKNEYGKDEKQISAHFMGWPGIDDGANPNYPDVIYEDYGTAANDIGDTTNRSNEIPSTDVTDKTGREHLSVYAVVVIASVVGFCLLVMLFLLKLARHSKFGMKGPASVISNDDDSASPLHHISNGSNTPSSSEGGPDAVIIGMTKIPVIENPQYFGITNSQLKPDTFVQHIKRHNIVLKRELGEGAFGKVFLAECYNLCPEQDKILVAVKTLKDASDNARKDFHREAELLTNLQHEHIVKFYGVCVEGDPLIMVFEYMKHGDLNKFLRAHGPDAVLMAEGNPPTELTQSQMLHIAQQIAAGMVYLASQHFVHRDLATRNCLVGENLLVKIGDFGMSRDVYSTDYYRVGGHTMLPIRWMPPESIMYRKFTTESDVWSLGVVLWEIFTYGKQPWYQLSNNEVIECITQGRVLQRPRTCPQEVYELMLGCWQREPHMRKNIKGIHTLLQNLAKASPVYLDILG
Sequence of Recombinant human TRKA (P04629 33-796): as the sequence (P04629 33-796 G595R) above, with R563G counted along it
Sequence of Recombinant human TRKC (Q16288 32-839): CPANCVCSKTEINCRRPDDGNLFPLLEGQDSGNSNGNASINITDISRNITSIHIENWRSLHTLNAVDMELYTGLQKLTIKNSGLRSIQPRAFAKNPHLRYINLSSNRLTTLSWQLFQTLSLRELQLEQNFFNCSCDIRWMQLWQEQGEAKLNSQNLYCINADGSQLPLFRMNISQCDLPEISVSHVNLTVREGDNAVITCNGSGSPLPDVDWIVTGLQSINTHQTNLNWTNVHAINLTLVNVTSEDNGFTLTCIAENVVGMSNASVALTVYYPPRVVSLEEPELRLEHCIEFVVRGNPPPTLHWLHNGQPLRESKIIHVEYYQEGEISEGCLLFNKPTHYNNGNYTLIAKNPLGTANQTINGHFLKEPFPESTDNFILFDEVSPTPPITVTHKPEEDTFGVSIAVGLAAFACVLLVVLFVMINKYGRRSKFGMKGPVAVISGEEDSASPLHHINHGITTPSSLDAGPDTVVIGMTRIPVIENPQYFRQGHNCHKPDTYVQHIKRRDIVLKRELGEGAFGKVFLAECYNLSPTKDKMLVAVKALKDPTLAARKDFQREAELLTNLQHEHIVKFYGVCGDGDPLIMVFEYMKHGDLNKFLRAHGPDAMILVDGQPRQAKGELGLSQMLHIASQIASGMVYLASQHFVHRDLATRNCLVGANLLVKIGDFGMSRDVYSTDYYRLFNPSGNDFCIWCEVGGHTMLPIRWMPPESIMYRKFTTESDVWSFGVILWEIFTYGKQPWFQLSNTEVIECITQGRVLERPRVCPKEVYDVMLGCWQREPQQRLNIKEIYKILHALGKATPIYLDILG

Consider `Fc1ccc(F)c([C@H]2C[C@H](F)CN2c2n[nH]c3ncc(-c4cnn(CC(F)F)c4)cc23)c1` [Example 30, 5-(1-(2,2-difluoroethyl)-1H-pyrazol-4-yl)-3-((2R,4S)-2-(2,5-difluorophenyl)-4-fluoropyrrolidin-1-yl)-1H-pyrazolo[3,4-b]pyridine], for which the IC50 at Recombinant human TRKA was less than 1 nM; on Recombinant human TRKB it was less than 1 nM; in the test with KM12-LUC cells it was less than 10 nM; on Recombinant human TRKC, less than 1 nM; in test [1] it was less than 1 nM.
`COCc1nnc(-c2cnc3[nH]nc(N4C[C@@H](F)C[C@@H]4c4cc(F)ccc4F)c3c2)o1` [Example 37, 2-(3-((2R,4S)-2-(2,5-difluorophenyl)-4-fluoropyrrolidin-1-yl)-1H-pyrazolo[3,4-b]pyridin-5-yl)-5-(methoxymethyl)-1,3,4-oxadiazole]: the IC50 on Recombinant human TRKA is less than 1 nM; on Recombinant human TRKB, less than 1 nM; in the test with KM12-LUC cells, less than 10 nM; on Recombinant human TRKC, less than 1 nM; in test [1], less than 1 nM.
Turning to `CN(C)CCn1cc(-c2cnc3[nH]nc(N4C[C@@H](F)C[C@@H]4c4cc(F)ccc4F)c3c2)cn1` [Example 33, 2-(4-(3-((2R,4S)-2-(2,5-difluorophenyl)-4-fluoropyrrolidin-1-yl)-1H-pyrazolo[3,4-b]pyridin-5-yl)-1H-pyrazol-1-yl)-N,N-dimethylethan-1-amine], the IC50 (on Recombinant human TRKA; at Recombinant human TRKB; in the test on KM12-LUC cells; on Recombinant human TRKC; in test [1]) was less than 1 nM each time.
For the compound `Fc1ccc(F)c([C@H]2C[C@H](F)CN2c2n[nH]c3ncc(-c4cn[nH]c4)cc23)c1` [Example 20, 3-((2R,4S)-2-(2,5-difluorophenyl)-4-fluoropyrrolidin-1-yl)-5-(1H-pyrazol-4-yl)-1H-pyrazolo[3,4-b]pyridine], the IC50 is less than 1 nM at Recombinant human TRKA; less than 1 nM at Recombinant human TRKB; less than 10 nM with KM12-LUC cells; less than 1 nM on Recombinant human TRKC; less than 1 nM in test [1].
`Fc1ccc(F)c([C@H]2C[C@H](F)CN2c2n[nH]c3ncc(-c4cnn([C@H]5CCNC5)c4)cc23)c1` [Example 25, 3-((2R,4S)-2-(2,5-difluorophenyl)-4-fluoropyrrolidin-1-yl)-5-(1-((S)-pyrrolidin-3-yl)-1H-pyrazol-4-yl)-1H-pyrazolo[3,4-b]pyridine]: the IC50 at Recombinant human TRKA was less than 1 nM; at Recombinant human TRKB, less than 1 nM; in the test on KM12-LUC cells it was less than 10 nM; at Recombinant human TRKC it was less than 1 nM; in test [1], less than 1 nM.
Consider `Fc1ccc(F)c([C@H]2C[C@H](F)CN2c2n[nH]c3ncc(-c4ccn(CC(F)F)n4)cc23)c1` [Example 36, 5-(1-(2,2-difluoroethyl)-1H-pyrazol-3-yl)-3-((2R,4S)-2-(2,5-difluorophenyl)-4-fluoropyrrolidin-1-yl)-1H-pyrazolo[3,4-b]pyridine], for which the IC50 at Recombinant human TRKA was less than 1 nM; at Recombinant human TRKB, less than 1 nM; with KM12-LUC cells, less than 10 nM; on Recombinant human TRKC, less than 1 nM; in test [1], less than 1 nM.

Source of the values: patent US12391687B2, “Five-and-six-membered heterocyclic compound and use thereof as protein receptor kinase inhibitor” (SHANGHAI ENNOVABIO PHARMACEUTICALS CO., LTD., priority 2018, dated 2025).
